In patent publication US12478677B2, “Tunable luminescent organic salts for enhanced imaging and photodynamic therapy” (BOARD OF TRUSTEES OF MICHIGAN STATE UNIVERSITY, priority 2017, dated 2025):
pIC50: −log10 of the molar value. “Also recorded” adds a separate entry of the source. Read-outs that look alike come from different tables or passages of the source.

Columns and labels:
[1] = test system: A549 cells; assay: Viability studies (trypan blue staining and cell counting) with or without IR excitation; type: cell-based, human; settings: for pIC50: linear regression analysis; for Toxicity in words, dark and light: with or without IR (850 nm) excitation; for Concentration at which still non-toxic: cells
Description: The cell lines human lung carcinoma (A549), metastatic human melanoma (WM1158) and Vemurafenib-resistant melanoma (Sk-Mel-28-Vem^R) are used. Sk-Mel-28-Vem^R is generated by culturing a parental melanoma cell lines in the presence of 2 μM Vemurafenib for 2 months. Acquired Vemurafenib resistance is defined by >1 log change in IC50 between nonresistant and resistant cell lines. Resistance is maintained through media supplementation with 2 μM Vemurafenib, which is changed every 48 hours. All cells are cultured in DMEM without pyruvate with 10% heat inactivated fetal bovine serum supplemented with glutamine and penicillin/streptomycin, and incubated in 37° C. with 5% CO2.
A549 and WM1158 cells are seeded at a density of 50,000 cells per well in 6-well tissue culture plates. After 24 hours of incubation, media is aspirated and replaced with media containing luminescent dyes at indicated concentrations. Each well is irradiated with an 850 nm LED lamp with an illumination rate of 526 mW/cm^2 for an hour in the incubator, and control cells are left in a dark incubator without irradiation. For studies with Cy7, a 740 nm LED lamp is used instead of an 850 nm, but with a similar illumination flux. Immediately after irradiation, the media is replenished with fresh dye-laced media and allowed to incubate for another 24 hours. […] Viable cell number is determined at 24 and 96 hours using trypan blue staining and a Nexcelom Cellometer Auto T4 cell counter. All assays are done with 3 biological replicates. The fold change in cell proliferation over days of treatment was calculated using the following equation.

[2] = test system: mitochondrial superoxide; assay: MitoSOX measurement of mitochondrial superoxide; type: cell-based, human; settings: A549 cells treated 4 days at phototoxic concentrations; with or without light
Text: FIG. 22. Luminescent organic salts generate mitochondrial ROS. […] MitoSOX is used to measure mitochondrial superoxide, and H2DCFDA for general cytoplasmic ROS in A549 cell treated with organic salts at indicated phototoxic concentrations for 4 days.
Photoactive agents accumulate in the mitochondria of cancer cells and generate reactive oxygen species (ROS) with light exposure, depolarizing the mitochondrial membrane potential to cause cell death. Small molecule protective agents that quench ROS have been used to decrease their phototoxicity. However, the exact type of ROS generated by each luminescent agent remains unclear. Photo-induced ROS include singlet oxygen, superoxide radical anion, hydrogen peroxide, hydroxyl radical and others (see FIG. 21). Superoxide is a highly reactive and biologically toxic species deployed in nature to kill invading organisms. It is often formed as a byproduct of mitochondrial respiration but is typically quenched by the highly efficient superoxide dismutase. Hydroxyl radicals are also highly reactive, damaging nearly all forms of biological molecules. Unlike superoxide radical, the hydroxyl radical cannot be easily quenched naturally via enzymes, and endogenous antioxidants are typically required. Singlet oxygen is the excited state of the common triplet oxygen (O2 ground state) and is highly reactive towards organic compounds. Singlet oxygen can be eliminated in mammalian systems by antioxidants. A range of nitroxy radicals can subsequently stem from superoxide (peroxynitrite) or peroxide (nitrogen dioxide) species. […] Each luminescent cation-anion pair generates specific ROS resonant with its own energy level, and cell types can be targeted by generating the key sensitizing ROS. For example, it is expected that CyFPhB is phototoxic (see FIGS. 11A and 11B and 12A and 12B) by generating reactive oxygen species, which can be resonant with its molecular orbital energy levels (FIG. 21). […] No cytoplasmic ROS is detected using general cytoplasmic ROS probe H2DCFDA. […]

[3] = Nanoparticle aggregation size from SEM images; type: physicochemical; settings: no observable precipitation
Text: FIG. 6. is a graph showing exemplary nanoparticle aggregation size distribution measured from SEM images (inset, scale bar=100 nm) of CyTPFB. Average aggregate size is 5.6±1.8 nm with no observable precipitation. […] This is achieved by cation-anion pairs of luminescent organic salts that can be modulated to be either non-toxic for enhanced imaging, or phototoxic for improved PDT. […] IR polymethine cyanine dyes, which have been used as effective theranostics are described. […] This is thought to occur through a mechanism mitigated by tumor vascularization, increased retention in cancer cells, and mitochondrial depolarization. Once in the cell, they accumulate in the mitochondria and lysosomes, where irradiation induces generation of cytotoxic oxygen species. A strategy is described for preventing or inhibiting salt dissociation in cells: aggregates are formed via introduction of the salt into an aqueous media by a solvent vehicle, forming particles with diameters of about 5 nm in size with no precipitation observed. […] This is confirmed by high resolution mass spectrometry, electron microscopy, and UV-Vis spectroscopy. […] Normalized absorption data are sown in FIGS. 7A, 7B, and 7C. This is likely due to steric effects, where if the counterion radius is too small it is not able to protect the nanoparticle stability. […]

CCN1C(=CC=C2CCCC(C=CC3=[N+](CC)c4ccc5ccccc5c4C3(C)C)=C2Cl)C(C)(C)c2c1ccc1ccccc21.Fc1c(F)c(F)c([B-](c2c(F)c(F)c(F)c(F)c2F)(c2c(F)c(F)c(F)c(F)c2F)c2c(F)c(F)c(F)c(F)c2F)c(F)c1F [CyTPFB]
pIC50 ([1]; A549 cells, 850 nm irradiation, read-out: IC50 850 nm): 4.96 | Phototoxicity with IR excitation, in words ([1]; A549 cells, IR (850 nm) excitation): non phototoxic to orders of magnitude higher concentrations | pIC50 ([1]; A549 cells, dark, no irradiation, read-out: IC50 Dark): 3.90 | Fold concentration relative to CyPF6 at which still non-toxic ([1]; A549 cells, listed as Cy^+ paired with TPFB^−): greater than 75 fold | Toxicity in words, dark and light ([1]; A549 cells): non-toxic | Toxicity in words, dark and light ([1]; A549 cells, listed as Cy^+ paired with TPFB): not toxic to cells in the dark and in the light | Toxicity in the dark, in words ([1]; A549 cells, without IR excitation): deactivates the dark cellular toxicity | Concentration at which still non-toxic [1]: 20 µM | Concentration at which still non-toxic ([1]; listed as Cy^+ paired with TPFB^−): 126 µM | Mitochondrial superoxide / ROS generation (MitoSOX), in words [2]: generating minimal ROS even with light at high concentrations; also recorded: generating minimal superoxide even with light | Average aggregate size [3]: 5.6±1.8 nm
